From article PMC6838323 (2019)

Columns and labels:
Experiment in all cases: fluorescence (Cy3/DABCYL) titration, two-site fit
Details in all cases: 6 mM Mg2+; 10 mM Tris-HCl pH 7.5, 25 °C; 250 nM aptamer; apparent; ATP up to 6.75 mM
[1] = system: 9_33 (DNA, aptamer) CACCTGGGGGAGTATTGCGGAGGAAGGTTTTTTTTTTTTTTTCCCCAGGTG
[2] = system: 8_23 (DNA, aptamer) CACCTGGGGGAGTATTGCGGAGGAAGGTTTTCCCAGGTG
[3] = system: 8_36 (DNA, aptamer) CACCTGGGGGAGTATTGCGGAGGAAGGTTTTTTTTTTTTTTTTTCCCAGGTG
[4] = system: 7_25 (DNA, aptamer) CACCTGGGGGAGTATTGCGGAGGAAGGTTTTTCCAGGTG
[5] = system: 8_43 (DNA, aptamer) CACCTGGGGGAGTATTGCGGAGGAAGGTTTTTTTTTTTTTTTTTTTTTTTTCCCAGGTG
[6] = system: 6_36 (DNA, aptamer) CACCTGGGGGAGTATTGCGGAGGAAGGTTTTTTTTTTTTTTTCAGGTG
[7] = system: 8_33 (DNA, aptamer) CACCTGGGGGAGTATTGCGGAGGAAGGTTTTTTTTTTTTTTCCCAGGTG
[8] = system: 9_25 (DNA, aptamer) CACCTGGGGGAGTATTGCGGAGGAAGGTTTTTTTCCCCAGGTG
[9] = system: 9_36 (DNA, aptamer) CACCTGGGGGAGTATTGCGGAGGAAGGTTTTTTTTTTTTTTTTTTCCCCAGGTG
[10] = system: 6_23 (DNA, aptamer) CACCTGGGGGAGTATTGCGGAGGAAGGTTCAGGTG
[11] = system: 8_25 (DNA, aptamer) CACCTGGGGGAGTATTGCGGAGGAAGGTTTTTTCCCAGGTG
[12] = system: 6_33 (DNA, aptamer) CACCTGGGGGAGTATTGCGGAGGAAGGTTTTTTTTTTTTCAGGTG
[13] = system: 7_43 (DNA, aptamer) CACCTGGGGGAGTATTGCGGAGGAAGGTTTTTTTTTTTTTTTTTTTTTTTCCAGGTG
[14] = system: 7_33 (DNA, aptamer) CACCTGGGGGAGTATTGCGGAGGAAGGTTTTTTTTTTTTTCCAGGTG
[15] = system: 9_23 (DNA, aptamer) CACCTGGGGGAGTATTGCGGAGGAAGGTTTTTCCCCAGGTG
[16] = system: 7_36 (DNA, aptamer) CACCTGGGGGAGTATTGCGGAGGAAGGTTTTTTTTTTTTTTTTCCAGGTG
[17] = system: 7_23 (DNA, aptamer) CACCTGGGGGAGTATTGCGGAGGAAGGTTTCCAGGTG
[18] = system: 6_25 (DNA, aptamer) CACCTGGGGGAGTATTGCGGAGGAAGGTTTTCAGGTG
[19] = system: 9_43 (DNA, aptamer) CACCTGGGGGAGTATTGCGGAGGAAGGTTTTTTTTTTTTTTTTTTTTTTTTTCCCCAGGTG

KDeff [1]: 4.98 ± 0.53 mM | KDeff [2]: 3.58 ± 1.37 mM | KDeff [3]: 0.352 ± 0.043 mM | KDeff [4]: 0.271 ± 0.038 mM | KDeff [5]: 0.388 ± 0.124 mM | KDeff [6]: 0.0107 ± 0.0019 mM | KDeff [7]: 0.734 ± 0.01 mM | KDeff [8]: 12.8 ± 1.7 mM | KDeff [9]: 2.72 ± 1.47 mM | KDeff [10]: 0.0314 ± 0.0111 mM | KDeff [11]: 2.29 ± 0.05 mM | KDeff [12]: 0.0182 ± 0.0076 mM | KDeff [13]: 0.0298 ± 0.0031 mM | KDeff [14]: 0.0985 ± 0.0481 mM | KDeff [15]: 39.0 ± 35.7 mM | KDeff [16]: 0.0709 ± 0.0018 mM | KDeff [17]: 0.382 ± 0.034 mM | KDeff [18]: 0.0262 ± 0.0095 mM | KDeff [19]: 0.967 ± 0.085 mM
SMILES: Nc1ncnc2c1ncn2[C@@H]1O[C@H](COP(=O)(O)OP(=O)(O)OP(=O)(O)O)[C@@H](O)[C@H]1O
